This note sets out measurements from patent US20240190876A1, “Tricyclic Urea Compounds As JAK2 V617F Inhibitors” (Incyte Corporation, priority 2022, published 2024).

The target of experiment [1] is T1, pseudo-kinase domain (JH2) of human V617F mutant JAK2 (Homo sapiens, UniProt O60674, F794H/V617F/W659A/W777A).
T1 construct: pseudo-kinase domain (JH2, amino-acids 536-812 with 3 surface mutations W659A, W777A, F794H); His (C); purchased BPS Bioscience 79498; host or cells: baculovirus expression system
In words: JAK2 LanthaScreen JH2-V617F Binding Assay. The conditions noted are these: 50 nM JAK2-JH2 tracer, 1 hour at 25° C., read-out: JH2 V617F Bind IC50. As to the method: JAK2 JH2-V617F binding assay utilizes pseudo-kinase domain (JH2, amino-acids 536-812 with 3 surface mutations W659A, W777A, F794H) of human V617F mutant JAK2 expressed as C-terminal His-Avi-tagged, biotinylated protein in a baculovirus expression system (BPS Bioscience, Catalog #79498). The assay was conducted in black 384-well polystyrene plates in a final reaction volume of 20 μL. JAK2 JH2-V617F (0.26 nM) was incubated with compounds (100 nL serially diluted in DMSO) in the presence of 50 nM Fluorescent JAK2-JH2 Tracer (MedChem Express Catalog #HY-102055) and 0.25 nM Streptavidin-Tb cryptate (Cisbio Part #610SATLB) in assay buffer (50 mM Tris, pH=7.5, 10 mM MgCl2, 0.01% Brij-35, 0.1% BSA, 1 mM EGTA, 5% Glycerol and 5 mM DTT). Non-specific binding was accessed in the presence of 2 mM ATP. After incubation for 1 hour at 25° C., LanthaScreen signals were read on a PHERAstar FS plate reader (BMG LABTECH). Data was analyzed with IDBS XLfit and GraphPad Prism 5.0 software using a four parameter dose response curve to determine IC50 for each compound.
On the technique in general: TR-FRET usually uses a lanthanide donor and a delayed reading to cut background.

For experiment [2], the target named is T2, catalytic domain (JH1) of human JAK2 (Homo sapiens, UniProt O60674).
T2 construct: catalytic domain (JH1, amino acids 826-1132) of human JAK2; FLAG (N); purchased Carna Biosciences 08-445-20N; host or cells: baculovirus expression system
In words: JAK2 LanthaScreen JH1 Binding Assay. The conditions noted are these: 50 nM JAK2-JH1 tracer, 2 hours at 25° C., read-out: JH1 Bind IC50. As to the method: JAK2 JH1 binding assay utilizes catalytic domain (JH1, amino acids 826-1132) of human JAK2 expressed as N-terminal FLAG-tagged, biotinylated protein in a baculovirus expression system (Carna Biosciences, Product #08-445-20N). The assay was conducted in black 384-well polystyrene plates in a final reaction volume of 20 μL. JAK2 JH1 (1.5 nM) was incubated with compounds (100 nL serially diluted in DMSO) in the presence of 50 nM fluorescent JAK2-JH1 tracer and 0.5 nM Streptavidin-Tb cryptate (Cisbio Part #610SATLB) in assay buffer (50 mM Tris, pH=7.5, 10 mM MgCl2, 0.01% Brij-35, 0.1% BSA, 1 mM EGTA, 5% Glycerol and 5 mM DTT). Non-specific binding was accessed in the presence of 2 mM ATP. After incubation for 2 hours at 25° C., LanthaScreen signals were read on a PHERAstar FS plate reader (BMG LABTECH). Data was analyzed with IDBS XLfit and GraphPad Prism 5.0 software using a four parameter dose response curve to determine IC50 for each compound.

The subject of a further experiment is FLT3. In words: FLT3 Enzymatic Assay. The experiment is classed as biochemical. The conditions noted are these: ratio FLT3 IC50 / JH2 V617F binding IC50. As to the method: The kinase assays were carried out at room temperature in assay buffer (HEPES 50 mM, pH 7.0, NaN3 0.02%, BSA 0.01%, Orthovanadate 0.1 mM, DTT 1 mM, MgCl2 10 mM) in a final volume of 10 μL. Testing compounds were prepared by serial dilution in DMSO and transferred to the plate wells by ECHO liquid handler (Labcyte) with 0.5% DMSO in the final assay. […]. Reactions were initiated by the addition of 5 μL ATP in assay buffer. The final 10 μL kinase reaction consists of 0.011 nM FLT3, 1 mM ATP, 500 nM TK Substrate-biotin and SEB reagent 62.5 nM in assay buffer. […] The plates were then sealed and centrifuged at 1800 rpm for 2 minutes. After 60 minutes incubation at room temperature, the product activity was determined by measuring the fluorescence at 620 nm and 665 nm on Pherastar microplate reader (BMG Labtech). A ratio is calculated (665/620 nm) for each well. Wells with DMSO only were served as the positive controls and wells containing no ATP were used as negative controls. IC50 determination was performed by fitting the curve of percent control activity versus the log of the compound concentration using the GraphPad Prism 7.0 software.

Experiment [3] deals with pSTAT5 signaling in SET-2 cells in whole blood. In words: pSTAT5 SET-2 Whole Blood MSD Assay. The experiment is classed as cell-based. The conditions noted are these: Homo sapiens, SET-2 cells with whole blood, 2 hour incubation, read-out: SET2 WB IC50. As to the method: SET-2 cells shipped from ABS, RPMI1640 medium, Fetal Bovine Serum from Gibco, Phospho-STAT5a,b Whole Cell Lysate Kit from Mesoscale, Retronectin (Recombinant Human Fibronectin Fragment) from TaKaRa, 96 well cell culture plate flat bottom from Corning, lysis buffer from Cell Signaling Technology, and sterile PBS from Gibco. Whole Blood from by BioIVT.
SET-2 cells were cultured in RPMI media with 20% FBS at 37° C. humidified incubator supplied with 5% CO2. On the day of the assay, 40 μL per well of diluted retronectin working solution was added to sterile 96-well clear flat bottom tissue culture plates (1:200 dilution of retronectin in sterile PBS) and incubated at 37C for 1 hour. After 1 hour, the retronectin working solution was aspirated and SET-2 cells were seeded at 100,000/well in RPMI+20% FBS. Cells were incubated overnight at 37° C. and 5% CO2.
The next day, the medium was removed and 40 μL of diluted compounds in serum-free RPMI and whole blood was added to the cells for a 2 hour incubation at 37° C. and 5% CO2. The compound starting concentration is 20 μM and 2.5 fold serial diluted down to 0.21 nM. The whole blood and compound mixture was then aspirated off using the BlueCat plate washer and washed 1× with PBS. Cells were lysed by adding 40 μL of 3X complete lysis buffer and shaken at room temperature for 45-60 minutes (complete lysis buffer consists of Cell Signaling Technology lysis buffer diluted to 3X and supplemented with Mesoscale's protease inhibitor, phosphatase I inhibitor, and phosphatase II inhibitor). The pSTAT5 MSD plates were blocked by adding 150 μL of Blocker A solution per well to the MSD plates and incubated at room temperature with shaking at 400 rpm for one hour or longer. After blocking, plates were washed 3X with 300 μL/well of IX Tris Wash Buffer. After lysis, added 25 μL per well of lysed sample was added to MSD plate and incubated with shaking at 4° C. wrapped in foil overnight. The next day, plates were washed again and 25 μL/well of diluted 1X Detection Antibody Solution, wrapped in foil, and incubated at room temperature with shaking at 400 rpm for 1 hour.
Plates were then washed again and lastly, 150 μL/well of 1X Read Buffer T was added to all wells. Plates were analyzed on MSD Discovery within 5 minutes. […] Data analysis was performed in GraphPad Prism using a 4-parameter fit and data was reported as Average ±SD.

Where only a bound is given, the exact number is not on record here.

T2 sequence (O60674 826-1132): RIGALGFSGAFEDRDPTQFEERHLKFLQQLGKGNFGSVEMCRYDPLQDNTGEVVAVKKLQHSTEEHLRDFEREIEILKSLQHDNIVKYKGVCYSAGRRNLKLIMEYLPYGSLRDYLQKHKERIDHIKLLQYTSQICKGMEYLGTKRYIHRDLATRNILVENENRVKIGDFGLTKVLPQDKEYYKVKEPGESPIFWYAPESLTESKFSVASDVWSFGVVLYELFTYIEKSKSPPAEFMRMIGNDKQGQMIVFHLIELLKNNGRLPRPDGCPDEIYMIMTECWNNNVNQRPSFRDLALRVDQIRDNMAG
T1 sequence (O60674 536-812 V617F/W659A/W777A/F794H): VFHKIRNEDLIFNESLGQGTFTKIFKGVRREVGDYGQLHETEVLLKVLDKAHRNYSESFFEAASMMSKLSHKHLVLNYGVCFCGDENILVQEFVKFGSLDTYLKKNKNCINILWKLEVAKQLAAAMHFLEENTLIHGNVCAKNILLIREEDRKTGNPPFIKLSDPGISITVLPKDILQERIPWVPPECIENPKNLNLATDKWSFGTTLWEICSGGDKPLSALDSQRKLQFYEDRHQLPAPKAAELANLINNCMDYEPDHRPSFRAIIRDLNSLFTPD

One may read the IC50 as the concentration at which inhibition is half-maximal. As for `COc1ccc(-c2c(-c3cn(C)nc3OC)[nH]c3ncc4c(c23)n([C@H]2CC[C@@](C)(NC(=O)C3CC3)CC2)c(=O)n4C)cc1` [Example 1, N-((1s,4s)-4-(7-(3-Methoxy-1-methyl-1H-pyrazol-4-yl)-8-(4-methoxyphenyl)-3-methyl-2-oxo-3,6-dihydroimidazo[4,5-d]pyrrolo[2,3-b]pyridin-1(2H)-yl)-1-methylcyclohexyl)cyclopropanecarboxamide], the IC50 in experiment [1] was not above 0.01 µM; in experiment [2], more than 1 µM; in experiment [3], 2.5 to 5 µM. Also, the “Selectivity FLT3/JH2 V617F” value in the experiment on FLT3 is listed as “***** (***** refers to selectivity of >5000-fold to ≤12500-fold)”.

For `[2H]C([2H])([2H])n1ncc2cc(-c3c(-c4cn(C)nc4OC)[nH]c4ncc5c(c34)n([C@H]3CC[C@@](C)(NC(=O)C4CC4)CC3)c(=O)n5C)ccc21` [Example 2, N-((1s,4s)-4-(7-(3-Methoxy-1-methyl-1H-pyrazol-4-yl)-3-methyl-8-(1-(methyl-d3)-1H-indazol-5-yl)-2-oxo-3,6-dihydroimidazo[4,5-d]pyrrolo[2,3-b]pyridin-1(2H)-yl)-1-methylcyclohexyl)cyclopropanecarboxamide], the IC50 was not above 0.01 µM in experiment [1], more than 1 µM in experiment [2] and not above 2.5 µM in experiment [3]. Also, the “Selectivity FLT3/JH2 V617F” value in the experiment on FLT3 was “****** (****** refers to selectivity of >12500-fold)”.

For the compound `[2H]C([2H])([2H])n1cc(-c2[nH]c3ncc4c(c3c2-c2ccc(OC)cc2)n([C@H]2CC[C@@](C)(NC(=O)C3CC3)CC2)c(=O)n4C)c(F)n1` [Example 3, N-((1s,4s)-4-(7-(3-fluoro-1-(methyl-d3)-1H-pyrazol-4-yl)-8-(4-methoxyphenyl)-3-methyl-2-oxo-3,6-dihydroimidazo[4,5-d]pyrrolo[2,3-b]pyridin-1(2H)-yl)-1-methylcyclohexyl)cyclopropanecarboxamide], the IC50 in experiment [1] is not above 0.01 µM; in experiment [2], more than 1 µM; in experiment [3], 2.5 to 5 µM. Further, the “Selectivity FLT3/JH2 V617F” value in the experiment on FLT3 is recorded as “** (** refers to selectivity of >500-fold to ≤1500-fold)”.

For `[2H]C([2H])([2H])n1cc(-c2[nH]c3ncc4c(c3c2-c2ccc3c(cnn3C([2H])([2H])[2H])c2)n([C@H]2CC[C@@](C)(NC(=O)C3CC3)CC2)c(=O)n4C)c(F)n1` [Example 4, N-((1s,4s)-4-(7-(3-fluoro-1-(methyl-d3)-1H-pyrazol-4-yl)-3-methyl-8-(1-(methyl-d3)-1H-indazol-5-yl)-2-oxo-3,6-dihydroimidazo[4,5-d]pyrrolo[2,3-b]pyridin-1(2H)-yl)-1-methylcyclohexyl)cyclopropanecarboxamide], the figures for the IC50 in experiment [1], in experiment [2] and in experiment [3] were not above 0.01 µM, more than 1 µM and not above 2.5 µM, respectively. In addition, in the experiment with FLT3, the “Selectivity FLT3/JH2 V617F” value is recorded as “*** (*** refers to selectivity of >1500-fold to ≤1750-fold)”.

In the case of `[2H]C([2H])([2H])n1ncc2cc(-c3c(-c4cn(CC)nc4F)[nH]c4ncc5c(c34)n([C@H]3CC[C@@](C)(NC(=O)C4CC4)CC3)c(=O)n5C)ccc21` [Example 5, N-((1s,4s)-4-(7-(1-Ethyl-3-fluoro-1H-pyrazol-4-yl)-3-methyl-8-(1-(methyl-d3)-1H-indazol-5-yl)-2-oxo-3,6-dihydroimidazo[4,5-d]pyrrolo[2,3-b]pyridin-1(2H)-yl)-1-methylcyclohexyl)cyclopropanecarboxamide], the IC50 was not above 0.01 µM in experiment [1], more than 1 µM in experiment [2] and not above 2.5 µM in experiment [3]. The “Selectivity FLT3/JH2 V617F” value in the experiment with FLT3 is recorded as “** (** refers to selectivity of >500-fold to ≤1500-fold)”.

On to `[2H]C([2H])([2H])n1cc(-c2[nH]c3ncc4c(c3c2-c2ccc(OC)cc2)n([C@H]2CC[C@@](C)(NC(=O)[C@H]3C[C@H]3F)CC2)c(=O)n4C([2H])([2H])[2H])c(F)n1` [Example 6, (1R,2R)-2-Fluoro-N-((1s,4S)-4-(7-(3-fluoro-1-(methyl-d3)-1H-pyrazol-4-yl)-8-(4-methoxyphenyl)-3-(methyl-d3)-2-oxo-3,6-dihydroimidazo[4,5-d]pyrrolo[2,3-b]pyridin-1(2H)-yl)-1-methylcyclohexyl)cyclopropane-1-carboxamide], for which the IC50 is not above 0.01 µM in experiment [1], more than 1 µM in experiment [2] and not above 2.5 µM in experiment [3]. Besides, the “Selectivity FLT3/JH2 V617F” value in the experiment with FLT3 was “** (** refers to selectivity of >500-fold to ≤1500-fold)”.
